Laboratory results taken from US20090099231A1, “3-Sulfonylamino-Pyrrolidine-2-One Derivatives as Factor Xa Inhibitors” (priority 2005, published 2009).
Structures can show the parent of a compound that is named as a salt.

What was measured:
[1] = target: human Factor Xa (Homo sapiens, UniProt P00742); test: In vitro assay for inhibition of Factor Xa (fluorogenic assay, Rhodamine 110 bis-Cbz-glycylglycyl-L-arginine amide substrate); format: biochemical; conditions: for Factor Xa inhibitory activity: human Factor Xa 0.0003 U.ml-1, substrate 10 μM, 15 min preincubation, room temperature, pH 7.4; for Ki: Ki=IC50/(1+[Substrate]/Km), i.e. IC50 divided by 1.6, human Factor Xa fluorogenic assay
Experimental: Compounds of the present invention were tested for their Factor Xa inhibitory activity as determined in vitro by their ability to inhibit human Factor Xa in a fluorogenic assay, using Rhodamine 110, bis-Cbz-glycylglycyl-L-arginine amide as the fluorogenic substrate. Compounds were diluted from a 10 mM stock solution in dimethylsulfoxide at appropriate concentrations. Assay was performed at room temperature using buffer consisting of: 50 mM Tris-HCl, 150 mM NaCl, 5 mM CaCl2, pH 7.4 containing human Factor Xa (final concentration of 0.0003 U.ml-1). Compound and enzyme were preincubated for 15 min prior to addition of the substrate (final concentration of 10 μM). The reaction was stopped after 3 hrs with the addition of H-D-Phe-Pro-Arg-Chloromethylketone. An LJL-Analyst fluorimeter was used to monitor fluorescence with 485 nm excitation/535 nm emission. To obtain IC50 values the data were analysed using ActivityBase® and XLfit®.
Ki=IC50/(1+[Substrate]/Km)
The Ki value for the above assay can be obtained by dividing the IC50 value by 1.6.

[2] = tested on: human plasma; test: Measurement of Prothrombin Time (PT), time to clot formation in plasma; conditions: pooled plasma from 4 donors, test compound 0.03 to 100 uM, Thromboplastin C Plus
Experimental: Blood was collected into a sodium citrate solution (ratio 9:1) to give a final concentration of 0.38% citrate. Plasma was generated by centrifugation of citrated blood samples at 1200×g for 20 min at 4° C. and stored at −20° C. until use.
The PT test was performed using the BCS Coagulation Analyzer (Dade Behring). For assay, 50 ul of plasma containing test compound at concentrations ranging from 0.03 to 100 uM (made from a 100 uM stock containing 1% DMSO in plasma) was combined with 100 ul of Thromboplastin C Plus (Dade Behring). Upon addition of the reagents, absorbance at 405 nm was monitored and time to clot formation is determined (normal range for human plasma is 10.6-12.4 seconds).

human Factor Xa, sequence (P00742 235-488 limits assumed): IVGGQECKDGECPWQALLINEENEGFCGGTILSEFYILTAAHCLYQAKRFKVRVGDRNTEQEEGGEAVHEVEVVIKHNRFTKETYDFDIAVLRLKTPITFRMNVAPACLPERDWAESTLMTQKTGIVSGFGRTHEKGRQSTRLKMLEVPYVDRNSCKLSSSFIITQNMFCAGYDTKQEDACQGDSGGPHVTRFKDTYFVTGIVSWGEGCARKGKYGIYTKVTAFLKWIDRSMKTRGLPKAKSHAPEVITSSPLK
human Factor Xa, sequence (P00742 41-179 partner limits assumed): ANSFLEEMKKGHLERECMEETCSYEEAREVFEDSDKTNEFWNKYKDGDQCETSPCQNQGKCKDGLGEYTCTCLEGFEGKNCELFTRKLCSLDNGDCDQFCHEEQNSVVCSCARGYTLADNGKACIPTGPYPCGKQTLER

Row | Structure (SMILES) | Factor Xa inhibitory activity [1] | Ki [1] | activity in prothrombin time (PT) test [2]
1 | Cl.O=C1[C@@H](NS(=O)(=O)c2ccc3cc(Cl)ccc3c2)CCN1c1ccc2c(c1)CCNC2 [Example 1, 6-Chloro-N-[(3S)-2-oxo-1-(1,2,3,4-tetrahydro-6-isoquinolinyl)-3-pyrrolidinyl]-2-naphthalenesulfonamide hydrochloride] | exhibit Factor Xa inhibitory activity |  | exhibit activity
2 | Cl.O=C1[C@@H](NS(=O)(=O)c2cc3ccc(Cl)cc3s2)CCN1c1ccc2c(c1)CCNC2 [Example 3, 6-Chloro-N-[(3S)-2-oxo-1-(1,2,3,4-tetrahydro-6-isoquinolinyl)-3-pyrrolidinyl]-1-benzothiophene-2-sulfonamide hydrochloride] | exhibit Factor Xa inhibitory activity | < 10 nM | exhibit activity
3 | O=C1[C@@H](NS(=O)(=O)c2ccc3c(Cl)c[nH]c3c2)CCN1c1ccc2c(c1)CCNC2.O=CO [Example 4, 3-Chloro-N-[(3S)-2-oxo-1-(1,2,3,4-tetrahydro-6-isoquinolinyl)-3-pyrrolidinyl]-1H-indole-6-sulfonamide formate] | exhibit Factor Xa inhibitory activity |  | exhibit activity
4 | O=C1[C@@H](NS(=O)(=O)c2ccc3cc[nH]c3c2)CCN1c1ccc2c(c1)CCNC2.O=CO [Example 5, N-[(3S)-2-Oxo-1-(1,2,3,4-tetrahydro-6-isoquinolinyl)-3-pyrrolidinyl]-1H-indole-6-sulfonamide formate] |  |  | exhibit activity
5 | O=C1[C@@H](NS(=O)(=O)c2cc3ccc(Cl)cc3[nH]2)CCN1c1ccc2c(c1)CCNC2.O=CO [Example 6, 6-Chloro-N-[(3S)-2-oxo-1-(1,2,3,4-tetrahydro-6-isoquinolinyl)-3-pyrrolidinyl]-1H-indole-2-sulfonamide formate] | exhibit Factor Xa inhibitory activity | < 10 nM | exhibit activity
6 | CN1CCc2cc(N3CC[C@H](NS(=O)(=O)/C=C/c4ccc(Cl)s4)C3=O)ccc2C1.O=CO [Example 7, (E)-2-(5-Chloro-2-thienyl)-N-[(3S)-1-(2-methyl-1,2,3,4-tetrahydro-6-isoquinolinyl)-2-oxo-3-pyrrolidinyl]ethenesulfonamide formate] | exhibit Factor Xa inhibitory activity |  | exhibit activity
7 | Cl.O=C1[C@@H](NS(=O)(=O)c2ccc(-c3ccc(Cl)s3)s2)CCN1c1ccc2c(c1)CCNC2 [Example 10, 5′-Chloro-N-[(3S)-2-oxo-1-(1,2,3,4-tetrahydro-6-isoquinolinyl)-3-pyrrolidinyl]-2,2′-bithiophene-5-sulfonamide hydrochloride] | exhibit Factor Xa inhibitory activity |  | exhibit activity
8 | O=C1[C@@H](NS(=O)(=O)c2ccc3c(Cl)c[nH]c3c2)CCN1c1ccc2c(c1)CNCC2.O=CO [Example 14, 3-Chloro-N-[(3S)-2-oxo-1-(1,2,3,4-tetrahydro-7-isoquinolinyl)-3-pyrrolidinyl]-1H-indole-6-sulfonamide formate] | exhibit Factor Xa inhibitory activity |  | exhibit activity
9 | O=C1[C@@H](NS(=O)(=O)c2ccc3cc[nH]c3c2)CCN1c1ccc2c(c1)CNCC2.O=CO [Example 15, N-[(3S)-2-Oxo-1-(1,2,3,4-tetrahydro-7-isoquinolinyl)-3-pyrrolidinyl]-1H-indole-6-sulfonamide formate] | exhibit Factor Xa inhibitory activity |  | 
10 | Cl.O=C1[C@H](NS(=O)(=O)c2ccc3cc(Cl)ccc3c2)CCN1c1ccc2c(c1)CCNC2 [Example 16, 6-Chloro-N-[(3R)-2-oxo-1-(1,2,3,4-tetrahydro-6-isoquinolinyl)-3-pyrrolidinyl]-2-naphthalenesulfonamide hydrochloride] | exhibit Factor Xa inhibitory activity |  | exhibit activity
11 | Cl.O=C1[C@@H](NS(=O)(=O)/C=C/c2ccc(Cl)s2)CCN1c1ccc2c(c1F)CCNC2 [Example 18, (E)-2-(5-Chloro-2-thienyl)-N-[(3S)-1-(5-fluoro-1,2,3,4-tetrahydro-6-isoquinolinyl)-2-oxo-3-pyrrolidinyl]ethenesulfonamide hydrochloride] | exhibit Factor Xa inhibitory activity |  | exhibit activity
12 | Cl.O=C1[C@@H](NS(=O)(=O)c2ccc3c(Cl)c[nH]c3c2)CCN1c1ccc2c(c1F)CCNC2 [Example 19, 3-Chloro-N-[(3S)-1-(5-fluoro-1,2,3,4-tetrahydro-6-isoquinolinyl)-2-oxo-3-pyrrolidinyl]-1H-indole-6-sulfonamide hydrochloride] | exhibit Factor Xa inhibitory activity |  | exhibit activity
13 | CN([C@H]1CCN(c2ccc3c(c2)CCNC3)C1=O)S(=O)(=O)/C=C/c1ccc(Cl)s1 [Example 34, (E)-2-(5-Chloro-2-thienyl)-N-methyl-N-[(3S)-2-oxo-1-(1,2,3,4-tetrahydro-6-isoquinolinyl)-3-pyrrolidinyl]ethenesulfonamide hydrochloride] | exhibit Factor Xa inhibitory activity | < 10 nM | 

Continued, in another order:

Row | Factor Xa inhibitory activity [1] | Ki [1] | Structure (SMILES) | activity in prothrombin time (PT) test [2]
14 | exhibit Factor Xa inhibitory activity |  | Cl.O=C1[C@@H](NS(=O)(=O)/C=C/c2ccc(Cl)s2)CCN1c1ccc2c(c1)CCNC2 [Example 2, (E)-2-(5-Chloro-2-thienyl)-N-[(3S)-2-oxo-1-(1,2,3,4-tetrahydro-6-isoquinolinyl)-3-pyrrolidinyl]ethenesulfonamide hydrochloride] | exhibit activity
15 | exhibit Factor Xa inhibitory activity | < 10 nM | CN1CCc2cc(N3CC[C@H](NS(=O)(=O)c4cc5ccc(Cl)cc5s4)C3=O)ccc2C1.O=CO [Example 8, 6-Chloro-N-[(3S)-1-(2-methyl-1,2,3,4-tetrahydro-6-isoquinolinyl)-2-oxo-3-pyrrolidinyl]-1-benzothiophene-2-sulfonamide formate] | exhibit activity
16 | exhibit Factor Xa inhibitory activity |  | O=C1[C@@H](NS(=O)(=O)c2cc3cc(Cl)ccc3s2)CCN1c1ccc2c(c1)CCNC2 [Example 9, 5-Chloro-N-[(3S)-2-oxo-1-(1,2,3,4-tetrahydro-6-isoquinolinyl)-3-pyrrolidinyl]-1-benzothiophene-2-sulfonamide trifluoroacetate] | exhibit activity
17 | exhibit Factor Xa inhibitory activity |  | Cl.O=C1[C@@H](NS(=O)(=O)c2ccc3cc(Cl)ccc3c2)CCN1c1ccc2c(c1)CNCC2 [Example 11, 6-Chloro-N-[(3S)-2-oxo-1-(1,2,3,4-tetrahydro-7-isoquinolinyl)-3-pyrrolidinyl]-2-naphthalenesulfonamide hydrochloride] | exhibit activity
18 | exhibit Factor Xa inhibitory activity |  | Cl.O=C1[C@@H](NS(=O)(=O)CCc2ccc(Cl)s2)CCN1c1ccc2c(c1)CNCC2 [Example 12, 2-(5-Chloro-2-thienyl)-N-[(3S)-2-oxo-1-(1,2,3,4-tetrahydro-7-isoquinolinyl)-3-pyrrolidinyl]ethanesulfonamide hydrochloride] | exhibit activity
19 | exhibit Factor Xa inhibitory activity |  | Cl.O=C1[C@@H](NS(=O)(=O)/C=C/c2ccc(Cl)s2)CCN1c1ccc2c(c1)CNCC2 [Example 13, (E)-2-(5-Chloro-2-thienyl)-N-[(3S)-2-oxo-1-(1,2,3,4-tetrahydro-7-isoquinolinyl)-3-pyrrolidinyl]ethenesulfonamide hydrochloride] | exhibit activity
20 | exhibit Factor Xa inhibitory activity |  | Cl.O=C1[C@@H](NS(=O)(=O)c2ccc3cc(Cl)ccc3c2)CCN1c1cc2c(cc1F)CNCC2 [Example 20, 6-Chloro-N-[1-(7-fluoro-1,2,3,4-tetrahydro-6-isoquinolinyl)-2-oxo-3-pyrrolidinyl]-2-naphthalenesulfonamide hydrochloride] | exhibit activity
21 | exhibit Factor Xa inhibitory activity | < 10 nM | Cl.O=C1[C@@H](NS(=O)(=O)c2cc3ccc(Cl)cc3s2)CCN1c1cc2c(cc1F)CNCC2 [Example 21, 6-Chloro-N-[(3S)-1-(7-fluoro-1,2,3,4-tetrahydro-6-isoquinolinyl)-2-oxo-3-pyrrolidinyl]-1-benzothiophene-2-sulfonamide hydrochloride] | exhibit activity
